In the NIST ThermoML archive (doi:10.1021/je800244q):
Values joined by “and” are separate entries in the source; they are usually repeats but may differ in a detail not shown here. Equal values may be shown once. Numbers after ± are expanded uncertainties.

What was measured:
[1] = molar heat capacity at constant pressure; details: 101.33 kPa, Liquid, Small sample (50 mg) DSC
[2] = refractive index (Na D-line) (dimensionless); details: 298.15 K; 101.33 kPa; Liquid; Standard Abbe refractometry
[3] = Liquid; for mass density: Vibrating tube method; for speed of sound: Pulse-echo method

CC(O)CC(C)(C)O (centres undefined) [2-methyl-2,4-pentanediol]
[1]
Details	molar heat capacity at constant pressure [J/K/mol]
284.16 K	250.63 ± 4.3
288.14 K	254.33 ± 4.4
293.14 K	258.4 ± 4.5
298.16 K	262.4 ± 4.5
303.15 K	266.42 ± 4.6
308.15 K	270.35 ± 4.7
313.15 K	274.7 ± 4.8
318.15 K	279.12 ± 4.8
323.15 K	283.62 ± 4.9
328.15 K	288.35 ± 5
333.15 K	293.21 ± 5.1
338.15 K	298.13 ± 5.2
343.15 K	303.01 ± 5.2
348.15 K	307.95 ± 5.3
353.14 K	314.8 ± 5.5
358.16 K	318.39 ± 5.5

Details	refractive index
[2]	1.4258 ± 0.0005

[3]
Details	mass density	speed of sound [m/s]
278.15 K, 101.33 kPa	932.344 ± 0.24 kg/m3	–
283.15 K, 101.33 kPa	928.795 ± 0.24 kg/m3	–
288.14 K, 100 kPa	–	1326.5 ± 2.3
288.15 K, 101.33 kPa	925.238 ± 0.24 kg/m3	1326.4 ± 1.6
291.11 K, 100 kPa	–	1317.1 ± 2.3
292.85 K, 101320 kPa	–	1675.8 ± 2.5
292.86 K, 15200 kPa	–	1382.2 ± 2.3
292.86 K, 30390 kPa	–	1443.5 ± 2.4
292.86 K, 45590 kPa	–	1499.7 ± 2.4
292.86 K, 60790 kPa	–	1551.7 ± 2.4
292.86 K, 75990 kPa	–	1600.9 ± 2.5
292.86 K, 91180 kPa	–	1646.9 ± 2.5
293.14 K, 100 kPa	–	1310.7 ± 2.3
293.15 K, 101.33 kPa	921.71 ± 0.24 kg/m3 and 921.676 ± 0.24 kg/m3	1310.7 ± 1.6
298.15 K, 100 kPa	–	1295.2 ± 2.3
298.15 K, 101.33 kPa	918.16 ± 0.24 kg/m3 and 918.11 ± 0.24 kg/m3	1295.2 ± 1.6
298.15 K, 15200 kPa	–	1366.7 ± 2.4
298.15 K, 30390 kPa	–	1428.8 ± 2.4
298.15 K, 45590 kPa	–	1485.4 ± 2.4
298.15 K, 60790 kPa	–	1538.1 ± 2.4
298.15 K, 75990 kPa	–	1587.3 ± 2.5
298.15 K, 91180 kPa	–	1634 ± 2.5
298.15 K, 101320 kPa	–	1663.4 ± 2.5
301.02 K, 100 kPa	–	1286.3 ± 2.3
303.13 K, 30390 kPa	–	1414.6 ± 2.4
303.14 K, 15200 kPa	–	1351.4 ± 2.4
303.14 K, 45590 kPa	–	1472.1 ± 2.4
303.14 K, 60790 kPa	–	1525.2 ± 2.4
303.14 K, 75990 kPa	–	1575.1 ± 2.5
303.14 K, 91180 kPa	–	1622.1 ± 2.5
303.14 K, 101320 kPa	–	1651.8 ± 2.5
303.15 K, 100 kPa	–	1279.9 ± 2.3
303.15 K, 101.33 kPa	914.59 ± 0.24 kg/m3	1279.8 ± 1.6
303.16 K, 101.33 kPa	914.548 ± 0.24 kg/m3	–
308.13 K, 15200 kPa	–	1336.9 ± 2.4
308.13 K, 30390 kPa	–	1400.8 ± 2.4
308.13 K, 45590 kPa	–	1459.2 ± 2.4
308.13 K, 60790 kPa	–	1513 ± 2.4
308.13 K, 75990 kPa	–	1563.1 ± 2.5
308.13 K, 91180 kPa	–	1610.8 ± 2.5
308.13 K, 101320 kPa	–	1640.8 ± 2.5
308.15 K, 100 kPa	–	1264.7 ± 2.3
308.15 K, 101.33 kPa	910.981 ± 0.24 kg/m3 and 911.02 ± 0.24 kg/m3	1264.7 ± 1.6
308.18 K, 100 kPa	–	1264.6 ± 2.3
313.1 K, 15200 kPa	–	1323 ± 2.3
313.1 K, 30390 kPa	–	1387.6 ± 2.4
313.1 K, 45590 kPa	–	1446.5 ± 2.4
313.1 K, 60790 kPa	–	1501 ± 2.4
313.1 K, 75990 kPa	–	1551.6 ± 2.5
313.1 K, 101320 kPa	–	1629.9 ± 2.5
313.11 K, 91180 kPa	–	1599.6 ± 2.5
313.15 K, 101.33 kPa	907.43 ± 0.24 kg/m3 and 907.411 ± 0.24 kg/m3	1249.6 ± 1.6
313.16 K, 100 kPa	–	1249.6 ± 2.3
318.15 K, 101.33 kPa	903.84 ± 0.24 kg/m3 and 903.834 ± 0.24 kg/m3	1234.7 ± 1.6
318.19 K, 100 kPa	–	1234.6 ± 2.3
318.29 K, 15200 kPa	–	1308.8 ± 2.4
318.29 K, 30390 kPa	–	1374.5 ± 2.4
318.29 K, 45590 kPa	–	1434.2 ± 2.4
318.29 K, 60790 kPa	–	1489.3 ± 2.4
318.29 K, 75990 kPa	–	1539.5 ± 2.5
318.29 K, 91180 kPa	–	1588.5 ± 2.5
318.29 K, 101320 kPa	–	1619.2 ± 2.5
323.15 K, 101.33 kPa	900.247 ± 0.24 kg/m3	–
328.16 K, 101.33 kPa	896.647 ± 0.24 kg/m3	–
333.16 K, 101.33 kPa	893.033 ± 0.24 kg/m3	–
338.15 K, 101.33 kPa	889.4 ± 0.24 kg/m3	–
343.15 K, 101.33 kPa	885.746 ± 0.24 kg/m3	–
348.15 K, 101.33 kPa	882.068 ± 0.25 kg/m3	–
353.15 K, 101.33 kPa	878.362 ± 0.25 kg/m3	–
358.15 K, 101.33 kPa	874.626 ± 0.25 kg/m3	–
